# Data from publication PMC12820960, “Lactucopicrin: A Sesquiterpene Lactone with Anti-Inflammatory Activity Modulates the Crosstalk between NF-kB and AHR Pathways” (Journal of Medicinal Chemistry, 2025).
# Biological target: T1, Aryl Hydrocarbon Receptor (AHR) (Homo sapiens, UniProt P35869)
# T1 sequence (P35869 11-848): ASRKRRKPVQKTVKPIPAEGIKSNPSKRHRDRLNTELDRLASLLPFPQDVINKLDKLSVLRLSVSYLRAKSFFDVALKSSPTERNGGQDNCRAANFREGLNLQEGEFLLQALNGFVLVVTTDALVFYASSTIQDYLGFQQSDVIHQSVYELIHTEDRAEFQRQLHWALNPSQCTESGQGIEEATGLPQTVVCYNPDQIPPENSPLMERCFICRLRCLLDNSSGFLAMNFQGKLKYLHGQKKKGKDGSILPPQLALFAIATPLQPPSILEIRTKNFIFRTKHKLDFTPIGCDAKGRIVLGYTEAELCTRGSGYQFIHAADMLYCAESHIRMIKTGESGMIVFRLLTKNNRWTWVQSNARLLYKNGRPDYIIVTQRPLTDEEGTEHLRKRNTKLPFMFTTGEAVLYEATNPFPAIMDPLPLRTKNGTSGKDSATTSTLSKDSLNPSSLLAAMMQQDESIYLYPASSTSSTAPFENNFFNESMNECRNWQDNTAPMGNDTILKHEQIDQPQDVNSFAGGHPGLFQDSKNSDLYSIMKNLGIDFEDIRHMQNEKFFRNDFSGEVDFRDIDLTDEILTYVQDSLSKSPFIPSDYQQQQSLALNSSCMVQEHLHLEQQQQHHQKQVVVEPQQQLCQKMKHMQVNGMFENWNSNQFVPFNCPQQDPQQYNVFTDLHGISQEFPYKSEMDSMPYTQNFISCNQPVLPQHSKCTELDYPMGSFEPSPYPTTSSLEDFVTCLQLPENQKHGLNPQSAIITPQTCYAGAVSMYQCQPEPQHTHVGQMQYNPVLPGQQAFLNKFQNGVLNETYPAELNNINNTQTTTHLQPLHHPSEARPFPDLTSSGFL
# Experiment: AHR luciferase reporter activation ([…]) in THP-1, Caco-2 and EA.hy926 cells
# Format: cell-based
structure (smiles),measurement,value
O=C1/C(=C2\Nc3ccccc3C2=O)Nc2ccccc21 [indigo],"AHR luciferase reporter activation (1 uM) in THP-1, Caco-2 and EA.hy926 cells","AHR activation in THP-1 observed upon exposure to indigo, a known AHR agonist"
